Data set [1] has as its system L. infantum (MHOM/MA/67/ITMAP-263) axenic amastigotes. The experiment in a line: In vivo anti-amastigote activity in BALB/c mice infection model (limiting dilution parasite burden). As to conditions: all the organs (spleen, liver, bone marrow); miltefosine 10 mg/kg/day per os, 10 days. How it is done: (§1) The compound URB1483 was selected for the in vivo evaluation on a BALB/c mice infection model. Six- to seven-week-old BALB/c mice were purchased from Charles River Laboratories (Barcelona, Spain) or the I3S (Porto, Portugal) animal facility. Luciferase-expressing L. infantum (MHOM/MA/67/ITMAP-263) axenic amastigotes were cultured in complete cell-free medium MAA/20 [20] at 37°C with 5% CO2. Five-day-old cultures of amastigotes were washed twice with PBS and resuspended at a concentration of 1×10^9 parasites/Ml. A total of 17 mice were infected with 100 μL of parasite suspension containing 1×10^8 parasites. The injection was performed intra-venously (IV) in the tails of mice, and treatments started 21 days post-infection for 10 consecutive days. Formulation studies are reported in the Supporting Information (S1 Table in S1 File). […]
(§2) Mice well-being-assessment was checked every two days, in terms of weight control and the presence of stress signs. […] Spleen and liver were weighted, and bone marrow cells were counted with automatic cell counter EVE^TM (NanoEnTek, Seul, Korea). […] For bone marrow, the number of parasites was calculated per 10^5 cells using the formula: [(geometric mean of reciprocal titer from each triplicate/number of cells) × reciprocal fraction of the cells inoculated into the first well]. […]

The test system of data set [2] is L. infantum intracellular amastigotes. The experiment in a line: Anti-amastigote assay on infected THP-1 cells. The format is cell-based. Particulars: Leishmania infantum; THP-1 cells infected 24 h, 72 h treatment, 20 to 0.31 μM; read-out: IC50 against L. infantum intracellular amastigotes. How it is done: THP-1 cells were plated in a 96-well plate and differentiated as described above. […] Briefly, Leishmania cells were washed twice with PBS to remove any trace of serum and resuspended 1×10^7/mL PBS. […] Labeled parasites were washed three times with complete RPMI medium and used for the infection. […] To analyze the infection, cells were washed, formaldehyde/methanol fixed, stained with Hoechst dye, and observed with a fluorescence microscope. Images were acquired (at 5× magnification) at 494 nm excitation/521 nm emission (green) and 350 nm excitation/460 emission (blue) for CFSE and Hoechst staining, respectively. Automated cell counting of single-color images was performed with ImageJ software to monitor the infection: the promastigotes count on each green image was normalized with the cell count on the corresponding blue image. […] To calculate IC50, the percentage values of Leishmania cell count normalized to THP-1 cells were plotted against the log10 concentration (μM) of each compound.

In data set [3] the test system is L. infantum MHOM/TN/80/IPT1 promastigotes. The experiment in a line: L. infantum promastigotes viability assay. The format is cell-based. As to conditions: Leishmania infantum, 72 h. How it is done: The reference strain L. infantum MHOM/TN/80/IPT1 (WHO international reference strain) was purchased from ATCC (ATCC® 50134™) and cultured in Evans’s Modified Tobie Medium (EMTM) at 26–28°C. During the treatment with bisindole derivative compounds, the parasites were maintained in RPMI-PY medium as described previously
The activity of bisindole derivatives was first evaluated on late log/stationary phase L. infantum promastigotes resuspended in 96-well plates (100 μL/well) in complete RPMI-PY medium with a density of 2.5×10^6 parasites/mL. The anti-parasitic activity was initially investigated with the single dose of 20 μM of each compound for 72 h at 26°C. […] As positive control, the anti-leishmanial drug miltefosine (Sigma-Aldrich, Milan, Italy) was included. Each condition was carried out in duplicate. The promastigotes viability was evaluated using the CellTiter 96H aqueous non-radioactive cell proliferation assay (Promega, Madison, Wisconsin, USA), as previously reported. The efficacy of selected compounds was evaluated by determining the IC50 values using the non-linear regression curves in GraphPad Prism 8.0 (GraphPad Software, Inc., San Diego, CA, USA). The equation used for data fitting was Y = 100/(1+10^((LogIC50-X)*HillSlope)) (hillslope not constrained), where X is equal to the log of concentration and Y is the normalized response.

The nature of data set [4]: Well-being, body weight and organ weight of infected and treated BALB/c mice. The format is in vivo. As to conditions: miltefosine 10 mg/kg/day per os. Here is the method: as §1, §2
The nature of data set [5]: Cytotoxicity assay on PMA-differentiated THP-1 macrophage-like cells. The data set is classed as cell-based, human. As to conditions: human, PMA-differentiated THP-1 macrophage-like cells; 72 h, scalar dilutions from 100 to 3.12 μM; mean and 95% CI. How it is done: (§3) The human monocytic cell line THP-1 (ECACC 88081201) was cultured in RPMI-1640 medium supplemented with 10% heat-inactivated fetal bovine serum (FBS), 2 mM L-glutamine, 10 g/L non-essential amino acid, 1 mM sodium pyruvate, 100 μg/mL streptomycin, […]. Cells were maintained in a humidified incubator at 37°C and 5% CO2. All cell culture reagents were purchased from Sigma-Aldrich (St. Louis, MO, USA).
(§4) The cytotoxicity of bisindole derivative compounds was evaluated on THP-1 cells. Briefly, cells were resuspended at a density of 5×10^6 cells/mL, 100 μL/well were seeded in a 96-well plate and treated for 48 h with 20 ng/mL phorbol myristic acid (PMA) to induce differentiation into macrophages-like cells. After cell adhesion, selected compounds were used at 4, 20, and 100 μM, for 72 h at 37°C. […] Compounds with cytotoxicity higher than 20 μM were further tested to determine CC50 with scalar dilutions 1:2 or 2:3 (from 100 to 3.12 μM).
(§5) The negative control (not-treated cells) and the anti-leishmanial drug miltefosine were included in each experiment. Each condition was carried out in duplicate. To evaluate the cytotoxicity of the selected compounds, the CellTiter 96H Aqueous Non-Radioactive Cell Proliferation Assay (Promega) was performed as described above. For each compound, the SI was calculated as the ratio between cytotoxicity in THP-1 and activity against L. infantum promastigotes.

Data set [6] concerns THP-1 cells. The data set is described as above. The format is cell-based, human. Particulars: CC50 in THP-1 / IC50 against L. infantum promastigotes. How it is done: as §3, §4, §5

What is called IC50 is the concentration that inhibits the measured activity by half. What is called inhibition is the percentage by which the read-out fell short of the control. A lower inhibition goes with a response near the control. As a reminder, the CC50 is the concentration at which the toxic effect on the cells reaches its halfway point. A high value points to lower toxicity to the cells. Turning to `CCCCCCCCCCCCCCCCOP(=O)([O-])OCC[N+](C)(C)C` [miltefosine, reference compound], in data set [1], the “reduction of parasite burden” value was “more than 99.9%”. The 50% inhibitory concentration (IC50) came out at 1.8 µM in data set [2]; 3.6 µM in data set [3] (scalar dilutions from 20 to 0.31 μM, mean and 95% CI). The compound also returned an inhibition at 20 µM in data set [3] (single dose 20 μM, 26°C) of 96.7%. The spleen weight result in data set [4] (after 10 days of treatment, versus non-treated infected group) is “significantly lower to the non-treated group”. Besides, the weight decrease in data set [4] (infected BALB/c mice, from the second treatment) came to 10%. The same compound gave a CC50 at 72 h in data set [5] of 36.7 µM. Moreover, in data set [6], the “SI (CC50/IC50)” value is 10.2.

(Values after publication PMC11175440, “Exploring hydrophilic 2,2-di(indol-3-yl)ethanamine derivatives against Leishmania infantum” (PLOS ONE, 2024).)
